Data reported in the supplement of paper PMC11616607.

Columns and labels:
Assay in all cases: drug sensitivity score (DSS) from 5-point dose-response viability curve (DSS (area-under-curve based score)); higher = more sensitive (stronger growth inhibition or killing); extreme values may be limits of the assay
Settings in all cases: exposure time: 72 h; concentration range: 5 concentrations over 10,000-fold range
Kuramochi = tested on: Kuramochi
How it was run: (§1)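 Viability of ovarian cancer and normal ovarian cell lines was read by CellTiter-Glo luminescence after 3 days at 37°C and 5% CO2 in 384-well plates holding 1,500 cells per well. Drugs had been dispensed in DMSO or water with an Echo 550 at five concentrations over a 10,000-fold range. Using Breeze software, a drug sensitivity score was assigned per cell line and drug, higher scores meaning more sensitive, and zero means no response.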

HOSE2C = tested on: HOSE2C
How it was run: as §1

COV362 = tested on: COV362
How it was run: as §1

OV90 = tested on: OV90
How it was run: as §1

HOSE1C = tested on: HOSE1C
How it was run: as §1

JHOS2 = tested on: JHOS2
How it was run: as §1

OVCAR8 = tested on: OVCAR8
How it was run: as §1

CAOV3 = tested on: CAOV3
How it was run: as §1

COV318 = tested on: COV318
How it was run: as §1

OVCAR4 = tested on: OVCAR4
How it was run: as §1

OVCAR5 = tested on: OVCAR5
How it was run: as §1

Ovsaho = tested on: Ovsaho
How it was run: as §1

## CN(C)C(=N)NC(=N)N [Metformin]
Kuramochi
  drug sensitivity score: 0
HOSE2C
  drug sensitivity score: 0
COV362
  drug sensitivity score: 0
OV90
  drug sensitivity score: 0
HOSE1C
  drug sensitivity score: 0
JHOS2
  drug sensitivity score: 0
OVCAR8
  drug sensitivity score: 0
CAOV3
  drug sensitivity score: 0
COV318
  drug sensitivity score: 0
OVCAR4
  drug sensitivity score: 0
OVCAR5
  drug sensitivity score: 0
Ovsaho
  drug sensitivity score: 0

## CC(=O)O[C@H]1C(=O)[C@@]2(C)[C@H]([C@H](OC(=O)c3ccccc3)[C@]3(O)C[C@H](OC(=O)[C@H](O)[C@@H](NC(=O)c4ccccc4)c4ccccc4)C(C)=C1C3(C)C)[C@]1(OC(C)=O)CO[C@@H]1C[C@@H]2O [Paclitaxel]
Kuramochi
  drug sensitivity score: 13.8
HOSE2C
  drug sensitivity score: 25
COV362
  drug sensitivity score: 8.9
OV90
  drug sensitivity score: 14.9
HOSE1C
  drug sensitivity score: 25.1
JHOS2
  drug sensitivity score: 14.4
OVCAR8
  drug sensitivity score: 27.6
CAOV3
  drug sensitivity score: 25.9
COV318
  drug sensitivity score: 5.7
OVCAR4
  drug sensitivity score: 7.8
OVCAR5
  drug sensitivity score: 21.4
Ovsaho
  drug sensitivity score: 11.8

## O=C1c2c(O)ccc(O)c2C(=O)c2c(NCCNCCO)ccc(NCCNCCO)c21 [Mitoxantrone]
Kuramochi
  drug sensitivity score: 3.2
HOSE2C
  drug sensitivity score: 12.8
COV362
  drug sensitivity score: 4
OV90
  drug sensitivity score: 5.9
HOSE1C
  drug sensitivity score: 12.5
JHOS2
  drug sensitivity score: 6.2
OVCAR8
  drug sensitivity score: 9.2
CAOV3
  drug sensitivity score: 13
COV318
  drug sensitivity score: 3.9
OVCAR4
  drug sensitivity score: 4.2
OVCAR5
  drug sensitivity score: 6.1
Ovsaho
  drug sensitivity score: 6.5

## Cc1ncc(-c2ccnc(Nc3ccc(S(C)(=O)=O)cc3)n2)n1C(C)C [AZD-5438]
Kuramochi
  drug sensitivity score: 6.8
HOSE2C
  drug sensitivity score: 2
COV362
  drug sensitivity score: 2.8
OV90
  drug sensitivity score: 4.4
HOSE1C
  drug sensitivity score: 7
JHOS2
  drug sensitivity score: 7.9
OVCAR8
  drug sensitivity score: 8.4
CAOV3
  drug sensitivity score: 4.4
COV318
  drug sensitivity score: 2.9
OVCAR4
  drug sensitivity score: 2.9
OVCAR5
  drug sensitivity score: 9.2
Ovsaho
  drug sensitivity score: 8.1

## Oc1ncnc2[nH]ncc12 [Allopurinol]
Kuramochi
  drug sensitivity score: 0
HOSE2C
  drug sensitivity score: 0
COV362
  drug sensitivity score: 0
OV90
  drug sensitivity score: 0.3
HOSE1C
  drug sensitivity score: 0
JHOS2
  drug sensitivity score: 0
OVCAR8
  drug sensitivity score: 0
CAOV3
  drug sensitivity score: 0
COV318
  drug sensitivity score: 0
OVCAR4
  drug sensitivity score: 0.2
OVCAR5
  drug sensitivity score: 0
Ovsaho
  drug sensitivity score: 0

## COc1cc2c(cc1-c1c(C)noc1C)ncc1[nH]c(=O)n([C@H](C)c3ccccn3)c12 [I-BET151]
Kuramochi
  drug sensitivity score: 9.2
HOSE2C
  drug sensitivity score: 11.3
COV362
  drug sensitivity score: 0.6
OV90
  drug sensitivity score: 8.2
HOSE1C
  drug sensitivity score: 13.8
JHOS2
  drug sensitivity score: 4.5
OVCAR8
  drug sensitivity score: 9.5
CAOV3
  drug sensitivity score: 11.9
COV318
  drug sensitivity score: 1.9
OVCAR4
  drug sensitivity score: 6.9
OVCAR5
  drug sensitivity score: 7.1
Ovsaho
  drug sensitivity score: 12

## O=C1CCC(N2C(=O)c3ccccc3C2=O)C(=O)N1 (stereo not given) [Thalidomide]
Kuramochi
  drug sensitivity score: 0
HOSE2C
  drug sensitivity score: 0
COV362
  drug sensitivity score: 0
OV90
  drug sensitivity score: 0
HOSE1C
  drug sensitivity score: 0
JHOS2
  drug sensitivity score: 0
OVCAR8
  drug sensitivity score: 0
CAOV3
  drug sensitivity score: 0
COV318
  drug sensitivity score: 0
OVCAR4
  drug sensitivity score: 0
OVCAR5
  drug sensitivity score: 0
Ovsaho
  drug sensitivity score: 0

## COc1ccc(Cn2ccc3ccc(C(=O)NO)cc32)cc1
Kuramochi
  drug sensitivity score: 1.2
HOSE2C
  drug sensitivity score: 1.5
COV362
  drug sensitivity score: 0
OV90
  drug sensitivity score: 1.8
HOSE1C
  drug sensitivity score: 2.5
JHOS2
  drug sensitivity score: 0.1
OVCAR8
  drug sensitivity score: 3.7
CAOV3
  drug sensitivity score: 1.1
COV318
  drug sensitivity score: 0
OVCAR4
  drug sensitivity score: 3.6
OVCAR5
  drug sensitivity score: 0.7
Ovsaho
  drug sensitivity score: 2.6

## NC(=O)c1cccc(-c2cccc(OC(=O)NC3CCCCC3)c2)c1 [URB597]
Kuramochi
  drug sensitivity score: 0
HOSE2C
  drug sensitivity score: 0
COV362
  drug sensitivity score: 0
OV90
  drug sensitivity score: 0
HOSE1C
  drug sensitivity score: 0
JHOS2
  drug sensitivity score: 0
OVCAR8
  drug sensitivity score: 0
CAOV3
  drug sensitivity score: 0
COV318
  drug sensitivity score: 0
OVCAR4
  drug sensitivity score: 0
OVCAR5
  drug sensitivity score: 0
Ovsaho
  drug sensitivity score: 0

## O=C(c1cccc(Cl)c1F)N1CCN(Cc2cccc(Nc3nccs3)n2)CC1 [MK-8745]
Kuramochi
  drug sensitivity score: 0.4
HOSE2C
  drug sensitivity score: 3.5
COV362
  drug sensitivity score: 0
OV90
  drug sensitivity score: 0.5
HOSE1C
  drug sensitivity score: 2.1
JHOS2
  drug sensitivity score: 0
OVCAR8
  drug sensitivity score: 8
CAOV3
  drug sensitivity score: 4.9
COV318
  drug sensitivity score: 0
OVCAR4
  drug sensitivity score: 1.1
OVCAR5
  drug sensitivity score: 7.8
Ovsaho
  drug sensitivity score: 0.2

## Cn1ncc(Cl)c1-c1cc(C(=O)N[C@H](CN)Cc2cccc(F)c2)sc1Cl [Afuresertib]
Kuramochi
  drug sensitivity score: 4
HOSE2C
  drug sensitivity score: 2.8
COV362
  drug sensitivity score: 0
OV90
  drug sensitivity score: 0.9
HOSE1C
  drug sensitivity score: 2.9
JHOS2
  drug sensitivity score: 0
OVCAR8
  drug sensitivity score: 0.5
CAOV3
  drug sensitivity score: 0.8
COV318
  drug sensitivity score: 1.8
OVCAR4
  drug sensitivity score: 0.5
OVCAR5
  drug sensitivity score: 1.2
Ovsaho
  drug sensitivity score: 1.5

## Cc1ccc(NC(=O)c2ccc(CN3CCN(C)CC3)cc2)cc1Nc1nccc(-c2cccnc2)n1 [Imatinib]
HOSE2C
  drug sensitivity score: 0
COV362
  drug sensitivity score: 0.3
OV90
  drug sensitivity score: 1.5
HOSE1C
  drug sensitivity score: 0.2
JHOS2
  drug sensitivity score: 0
OVCAR8
  drug sensitivity score: 0.5
CAOV3
  drug sensitivity score: 0
COV318
  drug sensitivity score: 0
OVCAR4
  drug sensitivity score: 0
OVCAR5
  drug sensitivity score: 1.3
Ovsaho
  drug sensitivity score: 0

## CC[C@H](CO)Nc1nc(NCc2ccccc2)c2ncn(C(C)C)c2n1 [Seliciclib]
HOSE2C
  drug sensitivity score: 0
COV362
  drug sensitivity score: 0
OV90
  drug sensitivity score: 0.3
HOSE1C
  drug sensitivity score: 1.1
JHOS2
  drug sensitivity score: 1.2
OVCAR8
  drug sensitivity score: 1.6
CAOV3
  drug sensitivity score: 0.4
COV318
  drug sensitivity score: 1.1
OVCAR4
  drug sensitivity score: 0
OVCAR5
  drug sensitivity score: 3.4
Ovsaho
  drug sensitivity score: 0.1

## Nc1ccn([C@@H]2O[C@H](CO)[C@@H](O)[C@@H]2O)c(=O)n1 [Cytarabine]
HOSE2C
  drug sensitivity score: 6.6
COV362
  drug sensitivity score: 2.3
OV90
  drug sensitivity score: 4.4
HOSE1C
  drug sensitivity score: 14
JHOS2
  drug sensitivity score: 8.6
OVCAR8
  drug sensitivity score: 14.3
CAOV3
  drug sensitivity score: 14.9
COV318
  drug sensitivity score: 1
OVCAR4
  drug sensitivity score: 0
OVCAR5
  drug sensitivity score: 10.6
Ovsaho
  drug sensitivity score: 2
